# Results taken from article PMC7367873, “Dissecting the sequence determinants for dephosphorylation by the catalytic subunits of phosphatases PP1 and PP2A” (Nature Communications, 2020).
# Tested on: GFP-14-3-3β and its binding proteins
# Assay: GFP-14-3-3β co-IP with LC-MS/MS label-free quantification, untreated versus PP1c-treated
# Set-up: species or system human
substance,measurement,setting,value
PP1c: recombinant catalytic subunit of PP1,number of proteins significantly dissociating from 14-3-3,"1 µM recombinant PP1c, 1 h at 30 °C, FDR 0.05, of 108 interacting proteins, three replicates",56 proteins
same,"Difference (log2), PP1 vs untreated","log2 difference, pairwise comparison PP1 vs untreated, label-free quantification, 3 replicates each",5.428
same,number of dissociating proteins with at least one PP1c-regulated phosphorylation site,"mapped onto phosphoproteomic dataset, of 56 proteins",35 proteins
same,14-3-3-protein interactions disrupted,recombinant PP1c,52%
